# Test results as given in US20250320401A1, “CORROSION INHIBITOR AND RELATED METHODS OF INHIBITING THE CORROSION OF METAL SURFACES” (Schlumberger Technology Corporation, priority 2024, published 2025).
# How the values were obtained:
# [1] = test system: mice; assay: Acute toxicity, intraperitoneal LD50 in mice; type: in vivo; settings: relative to reuterin
# From the text: (§1) Biotechnologically produced 3-HPA and the 3-HPA derivatives, such as the cyclic dimeric form of FIG. 2 and others described herein, have a high potential as a food preservative and within health care. […] See Fernandez-Cruz M. L, Martín-Cabrejas I., Palacio J. P., Gaya P., Díaz-Navarro C., Navas J. M., Medina M., Arques J. L., “In vitro toxicity of reuterin, a potential food biopreservative,” Food and Chemical Toxicology 96, 2016, 155-159. In contrast for acrolein, the median intraperitoneal (i.p.) lethal dose 50 (LD50) was estimated to be 7 mg/kg by weight (bw) for mice. The acute toxicity of diacetyl after i.p. exposure in rats is low (525 mg/kg bw). […] The acute toxicity LD50 oral for propargyl alcohol is 20 mg/kg for rats. See Propargyl alcohol, MSDS, Aldrich-Sigma. Overall, the typical polymerizable corrosion inhibitors, i.e. acrolein and propargyl alcohol are 36 and 12 times respectively more toxic than reuterin.
# [2] = test system: mice; settings: cited from earlier work
# [3] = Corrosion rate by weight loss analysis of steel coupons in inhibited hydrochloric acid; settings: 3.57 mmol, 80° C.
# From the text: The corrosion rates were studied by weight loss analysis. The low carbon steel HS80 tubing were cut into coupons of 29±3 cm^2 surface area using a water cooled band saw to minimize any changes in the properties of the metal that may result from heating. After cutting, the coupons were stamped for identification, glass bead blasted and cleaned in acetone to remove any residue from the machining process. The coupons were then dried, placed in plastic bags and stored in airtight jars to prevent contact with humidity or airborne contaminants. The initial surface area of each test coupon was determined by accurate (to four decimal places) measurement of its geometric dimensions.
# Throughout the exposure period, isothermal conditions are maintained (for the present study, the temperature was maintained at 80° C.) and the inhibited acid is continuously stirred using a magnetic stirrer bar. Since the tests were designed to simulate oil well acid stimulation, no effort was made to remove dissolved oxygen from the acid. However, an argon blanket was used to stop any additional intrusion of oxygen during the one hour exposure period. Following each test, the coupons were rinsed in acetone and scrubbed with soap and water to remove residual inhibitor and corrosion deposits. […]
# [4] = test system: Listeria monocytogenes; settings: in meat products, milk and cottage cheese; cited from earlier work
# [5] = test system: Escherichia coli; settings: in meat products, milk and cottage cheese; cited from earlier work
# [6] = cited from earlier work
# [7] = test system: rats; settings: cited from earlier work
# [8] = test system: rats; assay: Acute toxicity, oral LD50 in rats; type: in vivo; settings: relative to reuterin
# From the text: as §1
# [9] = test system: rats; settings: cited from earlier work; remark: listed apart in the source
structure (smiles),measurement,setting,value
C=CC=O [Acrolein],times more toxic than reuterin,[1],36 times
same,median intraperitoneal (i.p.) lethal dose 50 (LD50),[2],7 mg/kg by weight (bw)
"O=CCCO [3-HPA, 3-Hydroxypropionaldehyde]",inhibition efficiency,[3]; 4M HCl,89%
same,inhibition efficiency,[3]; 28% HCl (so in the source),97%
same,growth inhibition,[4],inhibit the growth
same,growth inhibition,[5],inhibit the growth
same,i.p. LD50,[6]; i.p.,approximately 250 mg/kg bw
same,toxicity relative to diacetyl,[6]; relative to diacetyl,two times more toxic than diacetyl
CC(=O)C(C)=O [diacetyl],acute toxicity after i.p. exposure,[7],525 mg/kg bw
C#CCO [Propargyl alcohol],times more toxic than reuterin,[8],12 times
same,acute toxicity LD50 oral,[9],20 mg/kg
